Experimental data as given in patent publication US12440495B2, “Combination therapy for treatment of myeloproliferative neoplasms” (Incyte Corporation, priority 2020, dated 2025).
Like-named read-outs stand apart in the source and are kept apart here.

Columns and labels:
[1] = Clinical pharmacokinetics of Compound 1 monotherapy, Phase 1/2, advanced malignancies; format: in vivo, human
Protocol: The clinical PK of Compound 1 in participants with advanced malignancies (solid and hematologic malignancies) were evaluated in a Phase 1/2, open-label, dose-escalation/dose-expansion, safety and tolerability study. Participants received continuous QD doses of Compound 1. As of the data cutoff date (23 Sep. 2019), 25, 101, and 8 participants who received 8 mg, 12 mg, and 16 mg, respectively, across Part 1 and Part 2 (Compound 1 treated as monotherapy) have been assessed for PK. The PK parameters of parent Compound 1 are summarized in Table 2 and Table 3 (see FIG. 5). Table 2 presents a summary of Compound 1 pharmacokinetic parameters for Compound 1 as monotherapy (part 1 and 2) at cycle 1 day 1. Table 3 presents a summary of Compound 1 pharmacokinetic parameters for Compound 1 as monotherapy (part 1 and 2) at steady-state (cycle 1 day 8).
Blood samples for the determination of plasma concentrations of Compound 1 in Parts 1 and 2 were collected at predose on Cycle 1 Day 1, Cycle 1 Day 2, and Cycle 1 Day 8, and at 0.5, 1, 2, 4, 6, and 8 hours on Cycle 1 Day 1 and Cycle 1 Day 8. The plasma samples of Compound 1 were assayed by a validated LC-MS/MS method.

[2] = system: MPLW515L expressing bone marrow; assay: MPLW515L mouse model of MPN; settings: Compound 1 10 mg/kg QD; for spleen size / white blood cell count: ruxolitinib 60 mg/kg BID, or both, oral, 14 days
[3] = system: myelofibrosis; assay: Clinical efficacy in myelofibrosis participants (NCT04279847); format: in vivo, human
Protocol: This is a Phase 1, open-label, 2-part study of Compound 1 as monotherapy in participants with relapsed or refractory myelofibrosis (for further details see “Safety and Tolerability Study of INCB057643 in Participants With Myelofibrosis”, ClinicalTrials.gov Identifier: NCT04279847, which is incorporated herein by reference in its entirety). INCB057643 is also referred to as Compound 1 in the present disclosure. […] Participants will receive 4 mg QD of Compound 1 on a continuous basis.
A first participant and a second participant had relapsed myelofibrosis which was treated with Compound 1 monotherapy. A third participant was being treated with single-agent ruxolitinib but having suboptimal responses.

[4] = Treatment-emergent adverse events and exposure-safety analysis, Compound 1 monotherapy; format: in vivo, human; settings: for predicted probability of hyperglycemia incidence: from AUC-hyperglycemia relationship; for AUC: human, plasma, oral
Protocol: The selected clinical safety endpoints as deemed appropriate (eg, frequently occurring TEAEs (treatment-emergent adverse events), incident rate >20% for all AEs (adverse events) and clinically notable adverse events) were used to evaluate exposure-safety relationships. The safety data from a total of […] participants (including both solid tumors and hematologic malignancies) receiving monotherapy treatment of Compound 1 (n=10 at 8 mg, n=89 at 12 mg, and n=8 at 16 mg) in Parts 1 and 2 were used for analysis.
No statistically significant correlation was identified for steady-state Compound 1 AUC and any TEAEs or clinically notable AEs evaluated in this analysis, except hyperglycemia (p-value<0.05). […] Lack of correlation between Compound 1 AUCss.0-24 and TEAEs could be due to the narrow dose range (8, 12, or 16 mg) explored in this study and small sample sizes in the 8-mg and 16-mg groups of the study (the majority of participants received 12 mg).

[5] = system: SET-2 cells; assay: SET-2 xenograft model; settings: for tumor growth inhibition: Compound 1 10 mg/kg QD, or both, oral; for Fa (tumor growth inhibition level), SET-2: table head: ruxolitinib 60 mg/kg BID, Compound 1 10 mg/kg QD, combination
[6] = system: cMyc, a BRD4 target gene, in KMS12BM cells; assay: Ex vivo pharmacodynamic spiked cell assay, cMyc protein in KMS12BM cells in participant plasma; format: cell-based, human; settings: for inhibition of cMyc at trough: Cycle 1 Day 8 predose; for average cMyc inhibition at steady state: Day 8, predose to 8 hours
Protocol: Pharmacodynamic analysis was performed using an ex vivo assay measuring protein levels of cMyc, a BRD4 target gene, in KMS12BM cells, which were spiked into participant plasma samples collected at predose and various postdose timepoints. […] The average cMyc inhibition at steady state (Day 8, from predose to 8 hours) was 30%, 44%, and 65% for the dose of 8 mg (n=11), 12 mg (n=51), and 16 mg (n=7), respectively. […] Inhibition of cMyc was reduced to <10% at trough (Cycle 1 Day 8 predose) in the 8-mg and 12-mg cohorts and ˜30% in the 16-mg cohort.

[7] = system: HEL cells; assay: JAK2 V617F expressing HEL xenograft model of erythroleukemia; format: in vivo; settings: 14 days
Protocol: For efficacy studies, measurements of tumors were taken every 2 to 3 days using a digital caliper. Tumor volumes were calculated using the formula: Volume=(length×width2)/2 where width was the smaller dimension. Body weights were also monitored.
Animals were sacrificed (1) at end of study, (2) if tumor size reached 10% of total body weight, or (3) if 20% of body weight is lost.
Statistical analyses were performed using Prism Graphpad software. All comparisons were done using 2-way ANOVA with p<0.05 deemed significant.
Female SCID mice were subcutaneously inoculated with 10^7 HEL cells in matrigel. When tumors reached approximately 160 mm^3, mice (n=10 per group) were dosed orally with Compound 1 for 14 days as follows: • 1. BID at either 1 or 3 mg/kg, or vehicle control • 2. QD at 3, 10, or 30 mg/kg

[8] = system: myelofibrosis; settings: ruxolitinib monotherapy in clinical trials; cited from earlier work
[9] = ruxolitinib 60 mg/kg BID, combination
[10] = monotherapy 8, 12 or 16 mg, all grades and causality
[11] = ruxolitinib 30 mg/kg BID, 14 days

## CN1C(=O)C(C)(C)Oc2c(-c3cn(C)c(=O)c4[nH]ccc34)cc(S(C)(=O)=O)cc21 [Compound 1, 2,2,4-trimethyl-8-(6-methyl-7-oxo-6,7-dihydro-1H-pyrrolo[2,3-c]pyridin-4-yl)-6-(methylsulfonyl)-2H-1,4-benzoxazin-3(4H)-one]
[1]; 8 mg QD, cycle 1 day 1, N = 12
  Tmax, median: 2.00 h
[1]; 8 to 16 mg QD
  dose proportionality of steady-state Cmax and AUC0-24: proportional to dose
  steady-state oral clearance, geometric mean CLss/F: 9.92 to 10.7 L/h
[1]; human, plasma, oral, 2 mg, 2 mg QD, linear PK extrapolation from 12 mg QD, read-out: estimated steady-state AUC0-24
  AUC(0-t): 0.457 µM·h
[1]; human, plasma, oral, 4 mg, 4 mg QD, linear PK extrapolation from 12 mg QD, read-out: estimated steady-state AUC0-24
  AUC(0-t): 0.913 µM·h
[1]; human, plasma, oral, 8 mg, 8 mg QD, cycle 1 day 1, N = 12, read-out: AUClast, geometric mean (CV %)
  AUC(0-t): 2.09 µM·h
[1]; human, plasma, oral, 8 mg, 8 mg QD, cycle 1 day 1, N = 12, read-out: AUClast, mean ± SD
  AUC(0-t): 2.31 ± 1.12 µM·h
[1]; human, plasma, oral, 8 mg, 8 mg QD, cycle 1 day 1, N = 12, read-out: Cmax, geometric mean (CV %)
  Cmax: 188 nM
[1]; human, plasma, oral, 8 mg, 8 mg QD, cycle 1 day 1, N = 12, read-out: Cmax, mean ± SD
  Cmax: 201 ± 83.6 nM
[1]; human, plasma, oral, 12 mg, 12 mg QD, cycle 1 day 1, N = 99, read-out: AUClast, geometric mean (CV %)
  AUC(0-t): 2.55 µM·h
[1]; human, plasma, oral, 12 mg, 12 mg QD, cycle 1 day 1, N = 99, read-out: AUClast, mean ± SD
  AUC(0-t): 2.74 ± 1.09 µM·h
[1]; human, plasma, oral, 12 mg, 12 mg QD, cycle 1 day 1, N = 99, read-out: Cmax, geometric mean (CV %)
  Cmax: 249 nM
[1]; human, plasma, oral, 12 mg, 12 mg QD, cycle 1 day 1, N = 99, read-out: Cmax, mean ± SD
  Cmax: 266 ± 94.7 nM
[1]; human, plasma, oral, 12 mg, 12 mg QD, read-out: steady-state AUC0-24, geometric mean
  AUC(0-t): 2.74 µM·h
[1]; human, plasma, oral, 12 mg, 12 mg QD, read-out: steady-state Cmax, geometric mean
  Cmax: 272 nM
[1]; human, plasma, oral, 16 mg, 16 mg QD, cycle 1 day 1, N = 7, read-out: AUClast, geometric mean (CV %)
  AUC(0-t): 3.21 µM·h
[1]; human, plasma, oral, 16 mg, 16 mg QD, cycle 1 day 1, N = 7, read-out: AUClast, mean ± SD
  AUC(0-t): 3.37 ± 1.06 µM·h
[1]; human, plasma, oral, 16 mg, 16 mg QD, cycle 1 day 1, N = 7, read-out: Cmax, geometric mean (CV %)
  Cmax: 329 nM
[1]; human, plasma, oral, 16 mg, 16 mg QD, cycle 1 day 1, N = 7, read-out: Cmax, mean ± SD
  Cmax: 343 ± 93.2 nM
[1]; human, plasma, oral, 12 mg QD, cycle 1 day 1, N = 99, read-out: Tmax, median
  Tmax: 0.5 h
[1]; human, plasma, oral, 12 mg QD, steady-state, read-out: t1/2, geometric mean (converted)
  half-life: 9.17 h
[1]; human, plasma, oral, 16 mg QD, read-out: steady-state AUC, geometric mean
  AUC: 3.61 µM·h
[1]; human, plasma, oral, 8 to 16 mg QD, read-out: volume of distribution, geometric mean Vz/F
  Vd/F: 138 to 197 L
[1]; human, plasma, oral, multiple-dose, fasted state, 8 to 16 mg QD, read-out: median Tmax
  Tmax: 1 to 2 h
[1]; human, plasma, oral, multiple-dose, not dose-dependent, read-out: steady-state geometric mean half-life (converted)
  half-life: ~10 h
[1]; once daily dosing
  accumulation of exposure (steady-state AUC0-24 vs first dose AUC0-24): < 10%
[1]; once daily dosing, based on effective half-life of 10 hours
  time to steady-state (predicted): 2 days
[2]
  spleen size: able to reduce spleen size
  white blood cell count: able to slow the expansion of white blood cells
[2]; [9]
  Fa (fraction affected, change vs vehicle), MPL SPL: 0.5558
  MPL SPL (sizes of the spleens): 0.3611 grams
[3]; first participant, monotherapy 12 mg QD, nadir vs baseline
  spleen length reduction by spleen palpation: 92.5%
[3]; second participant, monotherapy 8 mg QD, on study 24 days
  clinical outcome: only disease progression
[4]; 2 mg
  predicted probability of hyperglycemia incidence: 8.0%
[4]; 4 mg
  predicted probability of hyperglycemia incidence: 9.2%
[4]; FIG. 8, monotherapy 8-16 mg QD
  AUCss,0-24, fourth quartile: 3.61 µM·h
  AUCss,0-24, second quartile: 2.07 µM·h
  AUCss,0-24, third quartile: 2.62 µM·h
[4]; 12 mg, participant 1011, Grade 4 gastrointestinal hemorrhage, 12 mg QD, read-out: AUCss,0-24 of individual participant
  AUC: 3.47 µM·h
[4]; 12 mg, participant 9002, Grade 4 gastrointestinal hemorrhage, 12 mg QD, read-out: AUCss,0-24 of individual participant
  AUC: 3.61 µM·h
[4]; 12 mg, participant 12005, Grade 3 INR increased, 12 mg QD, concomitant warfarin, read-out: AUCss,0-24 of individual participant
  AUC: 6.99 µM·h
[4]; 16 mg, participant 16001, Grade 3 INR increased, 16 mg QD, concomitant warfarin, read-out: AUCss,0-24 of individual participant
  AUC: 9.77 µM·h
[4]; FIG. 8, monotherapy 8-16 mg QD, read-out: AUCss,0-24, first quartile
  AUC: 0.893 to 2.04 µM·h
[4]; monotherapy 8, 12 or 16 mg
  clinically notable AE incidence: INR increased: 8.5%
  clinically notable AE incidence: epistaxis: 9.9%
  clinically notable AE incidence: gastrointestinal hemorrhage: 1.9%
  clinically notable AE incidence: hyperglycemia: 17.4%
[4]; [10]
  TEAE incidence: anemia: 27.3%
  TEAE incidence: constipation: 20.7%
  TEAE incidence: decreased appetite: 35.5%
  TEAE incidence: diarrhea: 27.3%
  TEAE incidence: dysgeusia: 19.8%
  TEAE incidence: fatigue: 45.5%
  TEAE incidence: nausea: 47.9%
  TEAE incidence: thrombocytopenia: 28.9%
  TEAE incidence: vomiting: 28.1%
[4]; participant 9002, Grade 4 gastrointestinal hemorrhage, 12 mg QD
  AUCss,0-24 of individual participant: 2.15 µM·h
[4]; participant 16001, Grade 3 INR increased, 16 mg QD, concomitant warfarin
  AUCss,0-24 of individual participant: 9.79 µM·h
[5]; [11]
  tumor growth inhibition: significantly inhibited tumor growth
[5]
  Fa (tumor growth inhibition level), SET-2: 0.24
[6]; 8 mg
  inhibition of cMyc at trough: < 10%
[6]; 8 mg, n=11
  average cMyc inhibition at steady state: 30%
[6]; 12 mg
  inhibition of cMyc at trough: < 10%
[6]; 12 mg, n=51
  average cMyc inhibition at steady state: 44%
[6]; 16 mg
  inhibition of cMyc at trough: ~30%
[6]; 16 mg, n=7
  average cMyc inhibition at steady state: 65%
[6]; Homo sapiens, KMS-12-BM, 70 participants, nonlinear regression, plasma concentration, read-out: IC50 (ex vivo, composite PK PD curve)
  IC50: 202 nM
[7]; 30 mg/kg QD oral
  tumor regression: one statistical tumor regression
[7]; all doses, oral
  tolerability (body weight loss): All doses were tolerated
[7]; oral, 1 or 3 mg/kg BID, 3, 10 or 30 mg/kg QD, p<0.02 each group
  tumor growth (mean tumor volume) vs vehicle: inhibited tumor growth in a dose-related manner

## N#CC[C@H](C1CCCC1)n1cc(-c2ncnc3[nH]ccc23)cn1 [ruxolitinib, (3R)-3-cyclopentyl-3-[4-(7H-pyrrolo[2,3-d]pyrimidin-4-yl)-1H-pyrazol-1-yl]propanenitrile]
[2]
  spleen size: able to reduce spleen size
  white blood cell count: more profound effect on white blood cell count reduction than Compound 1
[8]
  reduction in spleen size: about 35%
[5]; [11]
  tumor growth inhibition: significantly inhibited tumor growth
[5]; ruxolitinib 60 mg/kg BID, 11 days
  tumor growth inhibition: significant tumor growth inhibition
[5]
  Fa (tumor growth inhibition level), SET-2: 0.44
